Measurements published in ChEMBL document CHEMBL3044847, “Evaluation of systemic acquired resistance inducers for control of Phytophthora capsici on squash” (Crop Prot, 2009).
The source made the active and inactive calls. The calls are words filed in the database; no cut-off is given here.

What was measured:
Phytophthora capsici [1] = test: Insecticidal activity against Phytophthora capsici assessed as inhibition of sporangium production at 25 to 1000 ug/ml after 4 days; assay type: functional, organism-based
Phytophthora capsici [2] = test: Insecticidal activity against Phytophthora capsici assessed as inhibition of zoospore germination at 25 to 1000 ug/ml after 4 days with 16 hr photoperiod; assay type: functional, organism-based
Phytophthora capsici [3] = test: Insecticidal activity against Phytophthora capsici assessed as inhibition of mycelial growth by measuring perpendicular colony diameter at 25 to 2000 ug/ml after 8 days; assay type: functional, organism-based
Cucurbita pepo [4] = test: Phytotoxicity in Cucurbita pepo (pumpkin) assessed as effect on host weight and height under greenhouse condition at 50 ug/ml; assay type: organism-based; conditions: in vivo
Cucurbita pepo [5] = test: Toxicity in Cucurbita pepo (pumpkin) assessed as effect on host weight and height under greenhouse condition at 25 to 50 ug/ml; assay type: organism-based; conditions: in vivo
Phytophthora capsici [6] = test: Insecticidal activity against Phytophthora capsici in Cucurbita pepo assessed as effect on host weight and height under greenhouse condition at 25 to 50 ug/ml; assay type: functional, organism-based
Phytophthora capsici [7] = test: Insecticidal activity against 10^3 spores/ml of Phytophthora capsici in Cucurbita pepo assessed as reduction of disease severity under greenhouse condition at 25 to 50 ug/ml applied as foliar spray after 1 week; assay type: functional, organism-based
Phytophthora capsici [8] = test: Insecticidal activity against Phytophthora capsici in Cucurbita pepo assessed as reduction of disease severity under greenhouse condition at 25 to 50 ug/ml after 1 week; assay type: functional, organism-based
Phytophthora capsici [9] = test: Insecticidal activity against Phytophthora capsici assessed as inhibition of sporangium production after 4 days; assay type: functional, organism-based
Phytophthora capsici [10] = test: Insecticidal activity against Phytophthora capsici assessed as inhibition of zoospore germination at 500 to 1000 ug/ml after 4 days with 16 hr photoperiod; assay type: functional, organism-based
Phytophthora capsici [11] = test: Insecticidal activity against 10^4 spores/ml of Phytophthora capsici in Cucurbita pepo assessed as reduction of disease severity under greenhouse condition at 25 to 50 ug/ml applied as foliar spray after 1 week; assay type: functional, organism-based
Phytophthora capsici [12] = test: Insecticidal activity against Phytophthora capsici assessed as inhibition of sporangium production at 500 to 1000 ug/ml after 4 days; assay type: functional, organism-based

Compound | inhibition (Phytophthora capsici [1]) | inhibition (Phytophthora capsici [2]) | inhibition (Phytophthora capsici [3]) | Activity (Cucurbita pepo [4]) | Activity (Cucurbita pepo [5]) | Activity (Phytophthora capsici [6]) | Activity (Phytophthora capsici [7]) | Activity (Phytophthora capsici [8]) | inhibition (Phytophthora capsici [9]) | inhibition (Phytophthora capsici [10]) | Activity (Phytophthora capsici [11]) | inhibition (Phytophthora capsici [12])
CC(N)CC(=O)O (racemic) | inactive | inactive | inactive | Non-toxic | Non-toxic | Active | Active | Active | – | – | – | –
O=C(O)c1cc(Cl)nc(Cl)c1 [2,6-DICHLOROISONICOTINIC ACID] | – | – | Active | Toxic | – | Active | Active | Active | Dose-dependent effect | Active | Active | –
CSC(=O)c1cccc2nnsc12 [ACIBENZOLAR-S-METHYL] | – | inactive | inactive | Toxic | – | Active | Active | Active | – | – | Active | Active
O=C(O)c1ccccc1O [SALICYLIC ACID] | – | – | – | – | Non-toxic | Active | – | – | – | Active | – | –
